Results on 60 compounds are retold here after patent US8022091B2, “Triazole derivative” (Taisho Pharmaceutical Co., Ltd., priority 2006, dated 2011).

Usually inhibition stands for the drop in the measured response relative to a control, in per cent.

T1 sequence (P21453 whole entry): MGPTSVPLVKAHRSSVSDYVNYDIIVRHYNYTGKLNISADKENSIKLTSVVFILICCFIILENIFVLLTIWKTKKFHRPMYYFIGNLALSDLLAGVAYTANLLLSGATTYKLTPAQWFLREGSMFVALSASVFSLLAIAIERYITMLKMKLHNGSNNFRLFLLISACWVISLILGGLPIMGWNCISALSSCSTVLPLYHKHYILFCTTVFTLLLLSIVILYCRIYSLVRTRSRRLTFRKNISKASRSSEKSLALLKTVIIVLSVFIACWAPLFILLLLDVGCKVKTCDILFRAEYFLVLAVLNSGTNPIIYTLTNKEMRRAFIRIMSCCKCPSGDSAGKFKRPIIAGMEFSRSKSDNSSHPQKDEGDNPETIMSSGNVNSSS

One assay concerns the target T1, human Edg-1 (S1P1) (Homo sapiens, UniProt P21453).
T1 construct: expressed in transfected cells; host or cells: HEK-293
As to the kind of experiment: S1P1 binding assay: inhibition of [33P]-S1P binding to membrane fraction of HEK-293 cells transferred with the human Edg-1 (S1P1) gene. The note with it: [33P]-S1P 0.1 nM, human Edg-1 (S1P1) HEK-293 membrane fraction, 1 h at 30° C.; read-out: IC50 (concentration at which binding in the absence of the test compound was inhibited by 50%). The method, boiled down: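 With 0.1 nM [33P]-S1P and compound (10^−5M single point, or a concentration range for IC50) in 0.1% DMSO, membrane fractions from human Edg-1-expressing HEK-293 cells were treated for one hour at 30° C in 20 mM Tris-HCl pH 7.4 with NaF, deoxypyridoxine and BSA. Bound label was measured after filtration, with untransfected-cell background subtracted.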
For the compound `CCn1c(Oc2cccc(N3CCN(C)CC3)c2)nnc1[C@@H](C)NS(=O)(=O)c1ccc2c(c1)CCC2` [Compound 678], the IC50 was determined as 10.2 nM.

Staying with this assay, now noted: test compound 10 μM; inhibition of [33P]-S1P binding, membrane fraction.
As to `CCn1c(Oc2cccc(N3CCN(C)CC3)c2)nnc1[C@@H](C)NS(=O)(=O)CCCOc1ccc(OC)cc1` [Compound 618], the inhibition at 10 µM turned out to be 65.4%.

Turning to `CCn1c(Oc2cccc(N3CCN(C)CC3)c2)nnc1[C@@H](C)NS(=O)(=O)c1cccc(C)c1` [Compound 534], the inhibition at 10 µM worked out at 101%.

Take `CCn1c(Oc2ccc3cc[nH]c3c2)nnc1[C@@H](C)NS(=O)(=O)c1ccc(C)c(F)c1` [Compound 444]: the inhibition at 10 µM is 100%.

Consider `CCn1c(Oc2ccc3cc[nH]c3c2)nnc1[C@@H](C)NS(=O)(=O)c1cc2ccccc2s1` [Compound 493], for which the inhibition at 10 µM turned out to be 83.1%.

With `CCn1c(Oc2cccc(N3CCN(C)CC3)c2)nnc1[C@@H](C)NS(=O)(=O)c1ccc(Cl)cc1` [Compound 505], the inhibition at 10 µM was found to be 108%.

`CCn1c(Oc2cccc(N3CCN(C)CC3)c2)nnc1[C@@H](C)NS(=O)(=O)c1ccc2c(c1)CCC2` [Compound 678]: the inhibition at 10 µM was found to be 97.4%.

On to `CCn1c(Oc2cccc(N3CCN(C)CC3)c2)nnc1[C@@H](C)NS(=O)(=O)c1cc(F)c(Cl)cc1F` [Compound 583], for which the inhibition at 10 µM was found to be 109%.

Turning to `CCn1c(Oc2ccc3cc[nH]c3c2)nnc1[C@@H](C)NS(=O)(=O)c1ccc(F)c(F)c1F` [Compound 409], the inhibition at 10 µM is 74.7%.

On to `CCn1c(Oc2cccc(N3CCN(C)CC3)c2)nnc1[C@@H](C)NS(=O)(=O)c1c(F)c(Br)cc(F)c1Br` [Compound 589], for which the inhibition at 10 µM is 80.2%.

With `CCn1c(Oc2cccc(N3CCN(C)CC3)c2)nnc1[C@@H](C)NS(=O)(=O)c1c(C)cc(OC)c(C)c1C` [Compound 558], the inhibition at 10 µM was 64.8%.

Consider `CCn1c(Oc2cccc(N3CCN(C)CC3)c2)nnc1[C@@H](C)NS(=O)(=O)c1ccc(F)cc1Cl` [Compound 570], for which the inhibition at 10 µM is 77.4%.

Regarding `CCn1c(Oc2ccc3cc[nH]c3c2)nnc1[C@@H](C)NS(=O)(=O)c1ccc(F)c(C#N)c1` [Compound 432], the inhibition at 10 µM is 84.2%.

Take `CCn1c(Oc2cccc(N3CCN(C)CC3)c2)nnc1[C@@H](C)NS(=O)(=O)c1cccc(Cl)c1C` [Compound 555]: the inhibition at 10 µM came out at 102%.

For `CCn1c(Oc2cccc(N3CCN(C)CC3)c2)nnc1[C@@H](C)NS(=O)(=O)c1ccc(C)c(C)c1` [Compound 619], the inhibition at 10 µM is 114%.

`CCn1c(Oc2ccc3cc[nH]c3c2)nnc1[C@@H](C)NS(=O)(=O)c1c(F)cc(F)cc1Br` [Compound 436]: the inhibition at 10 µM turned out to be 67.5%.

As for `CCn1c(Oc2ccc3cc[nH]c3c2)nnc1[C@@H](C)NS(=O)(=O)c1cnn(-c2ccccc2)c1C` [Compound 468], the inhibition at 10 µM came to 56.2%.

`CCn1c(Oc2cccc(N3CCN(C)CC3)c2)nnc1[C@@H](C)NS(=O)(=O)c1cc(C)c(Cl)cc1Cl` [Compound 588]: the inhibition at 10 µM is 109%.

For `CCn1c(Oc2cccc(N3CCN(C)CC3)c2)nnc1[C@@H](C)NS(=O)(=O)c1c(Cl)cc(C(F)(F)F)cc1Cl` [Compound 579], the inhibition at 10 µM came to 87.6%.

Turning to `CCn1c(Oc2cccc(N3CCN(C)CC3)c2)nnc1[C@@H](C)NS(=O)(=O)c1cc(F)cc(F)c1` [Compound 606], the inhibition at 10 µM amounted to 108%.

Regarding `CCn1c(Oc2cccc(N3CCN(C)CC3)c2)nnc1[C@@H](C)NS(=O)(=O)c1ccc2cc(C)ccc2c1` [Compound 668], the inhibition at 10 µM was determined as 98.6%.

As for `CCn1c(Oc2cccc(N3CCN(C)CC3)c2)nnc1[C@@H](C)NS(=O)(=O)c1ccc2nsnc2c1` [Compound 633], the inhibition at 10 µM was 111%.

Turning to `CCn1c(Oc2ccc3cc[nH]c3c2)nnc1[C@@H](C)NS(=O)(=O)c1ccc(Cl)cc1Cl` [Compound 398], the inhibition at 10 µM is 84.7%.

Turning to `CCn1c(Oc2cccc(N3CCN(C)CC3)c2)nnc1[C@@H](C)NS(=O)(=O)c1ccccc1C(=O)OC` [Compound 545], the inhibition at 10 µM is 50.7%.

Consider `CCn1c(Oc2cccc(N3CCN(C)CC3)c2)nnc1[C@@H](C)NS(=O)(=O)c1ccc(OC)c(OC)c1` [Compound 513], for which the inhibition at 10 µM is 96.6%.

As for `CCn1c(Oc2cccc(N3CCN(C)CC3)c2)nnc1[C@@H](C)NS(=O)(=O)c1ccc(Br)cc1F` [Compound 582], the inhibition at 10 µM was found to be 106%.

Regarding `CCn1c(Oc2ccc3cc[nH]c3c2)nnc1[C@@H](C)NS(=O)(=O)c1cc(Cl)ccc1OC` [Compound 425], the inhibition at 10 µM is 90.1%.

Consider `CCn1c(Oc2cccc(N3CCN(C)CC3)c2)nnc1[C@@H](C)NS(=O)(=O)c1cc(C)cc(C)c1` [Compound 602], for which the inhibition at 10 µM was determined as 107%.

Consider `CCn1c(Oc2cccc(N3CCN(C)CC3)c2)nnc1[C@@H](C)NS(=O)(=O)c1ccc(C(=O)OC)n1C` [Compound 543], for which the inhibition at 10 µM turned out to be 112%.

The same assay, now with this note: test compound at 10 μM; inhibition of [33P]-S1P binding to the membrane fraction of HEK-293 cells expressing human Edg-1 (S1P1).
`CCn1c(Oc2ccc(F)cc2)nnc1[C@@H](C)NS(=O)(=O)c1ccsc1` [Compound 294]: the inhibition at 10 µM is 50.8%.

Take `CCn1c(Oc2ccc3cc[nH]c3c2)nnc1[C@@H](C)NS(=O)(=O)c1cc(Br)ccc1OC` [Compound 389]: the inhibition at 10 µM amounted to 88%.

In the case of `CCn1c(Oc2ccc(F)cc2)nnc1[C@@H](C)NS(=O)(=O)c1cccc(C)c1` [Compound 192], the inhibition at 10 µM amounted to 95.2%.

Consider `CCn1c(Oc2ccc(F)cc2)nnc1[C@@H](C)NS(=O)(=O)c1ccc(OC)cc1` [Compound 175, N-[(R)-1-[4-Ethyl-5-(4-fluorophenoxy)-4H-[1,2,4]triazol-3-yl]-ethyl]-4-methoxybenzenesulfonamide], for which the inhibition at 10 µM turned out to be 103%.

Take `CCn1c(Oc2ccc(F)cc2)nnc1[C@@H](C)NS(=O)(=O)c1cc(Cl)cc(Cl)c1` [Compound 213]: the inhibition at 10 µM was 102%.

Take `CCn1c(Oc2ccc3cc[nH]c3c2)nnc1[C@@H](C)NS(=O)(=O)c1ccccc1Br` [Compound 331]: the inhibition at 10 µM amounted to 59.8%.

For `CCn1c(Oc2ccc(F)cc2)nnc1[C@@H](C)NS(=O)(=O)c1cccc(Cl)c1` [Compound 231], the inhibition at 10 µM is 65.1%.

For `CCn1c(Oc2ccc(F)cc2)nnc1[C@@H](C)NS(=O)(=O)c1cc(C)cc(C)c1` [Compound 262], the inhibition at 10 µM is 79.6%.

For the compound `CCn1c(Oc2ccc3cc[nH]c3c2)nnc1[C@@H](C)NS(=O)(=O)c1ccc(F)cc1` [Compound 346], the inhibition at 10 µM stood at 89.2%.

As for `CCn1c(Oc2ccc3cc[nH]c3c2)nnc1[C@@H](C)NS(=O)(=O)c1c(C)cc(C)cc1C` [Compound 347], the inhibition at 10 µM came to 50.1%.

`CCn1c(Oc2ccc(F)cc2)nnc1[C@@H](C)NS(=O)(=O)CCc1cccc2ccccc12` [Compound 180]: the inhibition at 10 µM worked out at 94.6%.

On to `CCn1c(Oc2ccc(F)cc2)nnc1[C@@H](C)NS(=O)(=O)c1cc(Br)ccc1Br` [Compound 257], for which the inhibition at 10 µM stood at 78.2%.

As to `CCn1c(Oc2ccc(F)cc2)nnc1[C@@H](C)NS(=O)(=O)c1cc(F)c(Br)cc1F` [Compound 216], the inhibition at 10 µM stood at 88.9%.

With `CCn1c(Oc2ccc(F)cc2)nnc1[C@@H](C)NS(=O)(=O)c1cccc(OC(F)F)c1` [Compound 264], the inhibition at 10 µM was determined as 95.9%.

Take `CCn1c(Cc2ccc(F)cc2)nnc1[C@@H](C)NS(=O)(=O)c1csc2ccccc12` [Compound 324]: the inhibition at 10 µM came to 81.8%.

With `CCn1c(Oc2ccc3cc[nH]c3c2)nnc1[C@@H](C)NS(=O)(=O)c1cccc2ccccc12` [Compound 352], the inhibition at 10 µM came out at 88.5%.

As for `CCn1c(Oc2ccc3cc[nH]c3c2)nnc1[C@@H](C)NS(=O)(=O)c1cc(Cl)c(Cl)cc1Cl` [Compound 357], the inhibition at 10 µM is 106%.

As for `CCn1c(Oc2ccc(F)cc2)nnc1[C@@H](C)NS(=O)(=O)c1ccc(C)c(F)c1` [Compound 272], the inhibition at 10 µM is 104%.

Regarding `CCn1c(Oc2ccc3cc[nH]c3c2)nnc1[C@@H](C)NS(=O)(=O)c1ccc(Cl)cc1` [Compound 335], the inhibition at 10 µM was found to be 106%.

On to `CCn1c(Oc2ccc3cc[nH]c3c2)nnc1[C@@H](C)NS(=O)(=O)c1cc(F)ccc1C` [Compound 390], for which the inhibition at 10 µM is 65.9%.

Take `CCn1c(Oc2ccc(F)cc2)nnc1C(C)(C)NS(=O)(=O)c1c(C)c(C)cc(C)c1C` [Compound 208]: the inhibition at 10 µM stood at 80.2%.

With `CCc1ccc(S(=O)(=O)N[C@H](C)c2nnc(Oc3ccc4cc[nH]c4c3)n2CC)cc1` [Compound 345], the inhibition at 10 µM came out at 90.4%.

Take `CCn1c(Oc2ccc3cc[nH]c3c2)nnc1[C@@H](C)NS(=O)(=O)c1ccc(OC)cc1` [Compound 348]: the inhibition at 10 µM was determined as 109%.

With `CCn1c(Oc2ccc(F)cc2)nnc1[C@@H](C)NS(=O)(=O)c1ccc(-c2ccno2)s1` [Compound 258], the inhibition at 10 µM stood at 67.9%.

Turning to `CCn1c(Oc2ccc(F)cc2)nnc1[C@@H](C)NS(=O)(=O)c1cccc(F)c1` [Compound 252], the inhibition at 10 µM was found to be 82.8%.

In the case of `CCn1c(Oc2ccc(F)cc2)nnc1[C@@H](C)NS(=O)(=O)c1cc(C(F)(F)F)ccc1Br` [Compound 271], the inhibition at 10 µM amounted to 57.1%.

On to `CCn1c(Oc2ccc(F)cc2)nnc1[C@@H](C)NS(=O)(=O)c1ccc(C)cc1` [Compound 186], for which the inhibition at 10 µM stood at 86.8%.

Consider `CCn1c(Oc2ccc(F)cc2)nnc1[C@@H](C)NS(=O)(=O)c1ccc(Br)cc1C` [Compound 235], for which the inhibition at 10 µM amounted to 82.9%.

With `CCn1c(Oc2ccc(F)cc2)nnc1[C@@H](C)NS(=O)(=O)c1cc(Br)c(F)cc1F` [Compound 244], the inhibition at 10 µM was determined as 94.6%.

In the case of `C=Cc1ccc(S(=O)(=O)N[C@H](C)c2nnc(Oc3ccc(F)cc3)n2CC)cc1` [Compound 191], the inhibition at 10 µM was determined as 96.9%.

Turning to `CCc1ccc(S(=O)(=O)N[C@H](C)c2nnc(Oc3ccc(F)cc3)n2CC)cc1` [Compound 172], the inhibition at 10 µM stood at 92%.

Take `CCn1c(Oc2ccc3cc[nH]c3c2)nnc1[C@@H](C)NS(=O)(=O)c1cc(Cl)cc(Cl)c1` [Compound 383]: the inhibition at 10 µM worked out at 83.6%.
